# Measurements reported in patent US9833497B2, “Human originated EGF domain proteins and use of the same” (CHENGDU SOURCEBIO LIMITED-LIABILITY COMPANY, priority 2013, dated 2017).
# Assays:
# Type in all cases: cell-based
# [1] = system: Klebsiella pneumonia; assay: MIC against Gram-negative bacteria: Klebsiella pneumonia
# Procedure, shortened: (§1)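 Antibacterial activity of purified human EGF domain proteins: two-fold concentration series, triplicate wells, LB broth, 5×10^5 CFU/mL bacteria, 37° C shaking incubation. The lowest concentration without growth defines the MIC.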
# [2] = system: Serratia marcescens; assay: MIC against Gram-negative bacteria: Serratia marcescens
# Procedure, shortened: as §1
# [3] = system: Pseudomonas aeruginosa; assay: MIC against Gram-negative bacteria: Pseudomonas aeruginosa
# Procedure, shortened: as §1
# [4] = system: Citrobacter diversus; assay: MIC against Gram-negative bacteria: Citrobacter diversus
# Procedure, shortened: as §1
# [5] = system: Enterobacter cloacae; assay: MIC against Gram-negative bacteria: Enterobacter cloacae
# Procedure, shortened: as §1
# [6] = system: E. coli BL21; assay: MIC against Gram-negative bacteria: E. coli BL21; settings: E. coli BL21
# Procedure, shortened: as §1
# [7] = system: Proteus vulgaris; assay: MIC against Gram-negative bacteria: Proteus vulgaris
# Procedure, shortened: as §1
# [8] = system: E. coli DH5α; assay: Antibacterial activity: MIC and growth curve against E. coli DH5α in 96-well plate; settings: minimal inhibitory concentration against E. coli DH5α; 96-well plate, 5×10^5 CFU/mL, 37° C., judged after 8 h
# Procedure, shortened: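 MIC taken as lowest protein level with no bacterial growth, tracked by A600 every 30 min during 37 °C, 175 rpm culture. Two-fold protein series 50-12.5 μg/mL final, triplicate wells, against 5×10^5 CFU/mL of LB-washed mid-log cells.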
# [9] = system: Moraxella catarrhalis; assay: MIC against Gram-negative bacteria: Moraxella catarrhalis
# Procedure, shortened: as §1
# [10] = system: Proteus mirabilis; assay: MIC against Gram-negative bacteria: Proteus mirabilis
# Procedure, shortened: as §1
# [11] = system: Aeromonas hydrophila; assay: MIC against Gram-negative bacteria: Aeromonas hydrophila
# Procedure, shortened: as §1
# [12] = Klebsiella pneumonia, 96-well plate, 5×10^5 CFU/mL, 37° C., 10 h
# [13] = Serratia marcescens, 96-well plate, 5×10^5 CFU/mL, 37° C., 10 h
# [14] = Pseudomonas aeruginosa, 96-well plate, 5×10^5 CFU/mL, 37° C., 10 h
# [15] = Citrobacter diversus, 96-well plate, 5×10^5 CFU/mL, 37° C., 10 h
# [16] = Enterobacter cloacae, 96-well plate, 5×10^5 CFU/mL, 37° C., 10 h
# [17] = 96-well plate, 5×10^5 CFU/mL, 37° C., 10 h
# [18] = Proteus vulgaris, 96-well plate, 5×10^5 CFU/mL, 37° C., 10 h
# [19] = Moraxella catarrhalis, 96-well plate, 5×10^5 CFU/mL, 37° C., 10 h
# [20] = Proteus mirabilis, 96-well plate, 5×10^5 CFU/mL, 37° C., 10 h
# [21] = Aeromonas hydrophila, 96-well plate, 5×10^5 CFU/mL, 37° C., 10 h
# [22] = K. pneumonia, 10 h cultivation at 37° C., 5×10^5 CFU/mL
# [23] = S. marcescens, 10 h cultivation at 37° C., 5×10^5 CFU/mL
# [24] = P. aeruginosa, 10 h cultivation at 37° C., 5×10^5 CFU/mL
# [25] = C. diversus, 10 h cultivation at 37° C., 5×10^5 CFU/mL
# [26] = E. cloacae, 10 h cultivation at 37° C., 5×10^5 CFU/mL
# [27] = 10 h cultivation at 37° C., 5×10^5 CFU/mL
# [28] = P. vulgaris, 10 h cultivation at 37° C., 5×10^5 CFU/mL
# [29] = M. catarrhalis, 10 h cultivation at 37° C., 5×10^5 CFU/mL
# [30] = P. mirabilis, 10 h cultivation at 37° C., 5×10^5 CFU/mL
# [31] = A. hydrophila, 10 h cultivation at 37° C., 5×10^5 CFU/mL
substance,measurement,setting,value
PRT1011 (RAPSCGFHHCHHGGLCLPSPKPGFPPRCACLSGYGGPDCL; listed as Homo sapiens),MIC,"[1]; K. pneumonia, 10 h cultivation at 37° C.",50 µg/mL
same,MIC,"[2]; S. marcescens, 10 h cultivation at 37° C.",25 µg/mL
same,MIC,"[3]; P. aeruginosa, 10 h cultivation at 37° C.",12.5 µg/mL
same,MIC,"[4]; C. diversus, 10 h cultivation at 37° C.",25 µg/mL
same,MIC,"[5]; E. cloacae, 10 h cultivation at 37° C.",12.5 µg/mL
same,MIC,[6]; 10 h cultivation at 37° C.,50 µg/mL
same,MIC,"[7]; P. vulgaris, 10 h cultivation at 37° C.",50 µg/mL
same,MIC,[8],12.5 µg/mL
same,MIC,"[9]; M. catarrhalis, 10 h cultivation at 37° C.",12.5 µg/mL
same,MIC,"[10]; P. mirabilis, 10 h cultivation at 37° C.",25 µg/mL
same,MIC,"[11]; A. hydrophila, 10 h cultivation at 37° C.",50 µg/mL
PRT1208 (VHHGCEDDPCPEGSECVSDPWEEKHTCVCPSGRFGQCP; listed as Homo sapiens),MIC against K. pneumonia,[1]; [12],25 µg/mL
same,MIC against S. marcescens,[2]; [13],12.5 µg/mL
same,MIC against P. aeruginosa,[3]; [14],12.5 µg/mL
same,MIC against C. diversus,[4]; [15],25 µg/mL
same,MIC against E. cloacae,[5]; [16],12.5 µg/mL
same,MIC against E. coli BL21,[6]; [17],25 µg/mL
same,MIC against P. vulgaris,[7]; [18],25 µg/mL
same,MIC,[8],12.5 µg/mL
same,MIC against M. catarrhalis,[9]; [19],12.5 µg/mL
same,MIC against P. mirabilis,[10]; [20],50 µg/mL
same,MIC against A. hydrophila,[11]; [21],50 µg/mL
PRT1307 (HECPGGAETPCNGHGTCLDGMDRNGTCVCQENFRGSACQ; listed as Homo sapiens),MIC against K. pneumonia,[1]; [12],50 µg/mL
same,MIC against S. marcescens,[2]; [13],25 µg/mL
same,MIC against P. aeruginosa,[3]; [14],12.5 µg/mL
same,MIC against C. diversus,[4]; [15],12.5 µg/mL
same,MIC against E. cloacae,[5]; [16],100 µg/mL
same,MIC against E. coli BL21,[6]; [17],50 µg/mL
same,MIC against P. vulgaris,[7]; [18],12.5 µg/mL
same,MIC,[8],12.5 µg/mL
same,MIC against M. catarrhalis,[9]; [19],50 µg/mL
same,MIC against P. mirabilis,[10]; [20],25 µg/mL
same,MIC against A. hydrophila,[11]; [21],50 µg/mL
PRT80 (TNVCDLNPCEHQSVCTRKPSAPHGYTCECPPNYLGPYCE; listed as Homo sapiens),MIC (μg/mL) K. pneumonia,[1]; [12],25 µg/mL
same,MIC (μg/mL) S. marcescens,[2]; [13],12.5 µg/mL
same,MIC (μg/mL) P. aeruginosa,[3]; [14],12.5 µg/mL
same,MIC (μg/mL) C. diversus,[4]; [15],12.5 µg/mL
same,MIC (μg/mL) E. cloacae,[5]; [16],12.5 µg/mL
same,MIC (μg/mL) E. coli BL21,[6]; [17],50 µg/mL
same,MIC (μg/mL) P. vulgaris,[7]; [18],12.5 µg/mL
same,MIC,[8],12.5 µg/mL
same,MIC (μg/mL) M. catarrhalis,[9]; [19],25 µg/mL
same,MIC (μg/mL) P. mirabilis,[10]; [20],12.5 µg/mL
same,MIC (μg/mL) A. hydrophila,[11]; [21],25 µg/mL
PRT427 (DVNECETGVHRCGEGQVCHNLPGSYRCDCKAGFQRDAFGRGCI; listed as Homo sapiens),MIC,[1]; [22],50 µg/mL
same,MIC,[2]; [23],25 µg/mL
same,MIC,[3]; [24],25 µg/mL
same,MIC,[4]; [25],25 µg/mL
same,MIC,[5]; [26],25 µg/mL
same,MIC,[6]; [27],12.5 µg/mL
same,MIC,[7]; [28],12.5 µg/mL
same,MIC,[8],25 µg/mL
same,MIC,[9]; [29],50 µg/mL
same,MIC,[10]; [30],25 µg/mL
same,MIC,[11]; [31],12.5 µg/mL
PRT229 (DINECLTSSVCPEHSDCVNSMGSYSCSCQVGFISRNSTCE; listed as Homo sapiens),MIC (μg/mL) K. pneumonia,[1]; [22],12.5 µg/mL
same,MIC (μg/mL) S. marcescens,[2]; [23],12.5 µg/mL
same,MIC (μg/mL) P. aeruginosa,[3]; [24],12.5 µg/mL
same,MIC (μg/mL) C. diversus,[4]; [25],12.5 µg/mL
same,MIC (μg/mL) E. cloacae,[5]; [26],12.5 µg/mL
same,MIC (μg/mL) E. coli BL21,[6]; [27],25 µg/mL
same,MIC (μg/mL) P. vulgaris,[7]; [28],25 µg/mL
same,MIC,[8],50 µg/mL
same,MIC (μg/mL) M. catarrhalis,[9]; [29],12.5 µg/mL
same,MIC (μg/mL) P. mirabilis,[10]; [30],12.5 µg/mL
same,MIC (μg/mL) A. hydrophila,[11]; [31],12.5 µg/mL
PRT215 (YTQCTDGYEWDPVRQQCKDIDECDIVPDACKGGMKCVNHYGGYLCL; listed as Homo sapiens),MIC (μg/mL) K. pneumonia,[1]; [22],100 µg/mL
same,MIC (μg/mL) S. marcescens,[2]; [23],12.5 µg/mL
same,MIC (μg/mL) P. aeruginosa,[3]; [24],25 µg/mL
same,MIC (μg/mL) C. diversus,[4]; [25],25 µg/mL
same,MIC (μg/mL) E. cloacae,[5]; [26],25 µg/mL
same,MIC (μg/mL) E. coli BL21,[6]; [27],12.5 µg/mL
same,MIC (μg/mL) P. vulgaris,[7]; [28],12.5 µg/mL
same,MIC,[8],25 µg/mL
same,MIC (μg/mL) M. catarrhalis,[9]; [29],12.5 µg/mL
same,MIC (μg/mL) P. mirabilis,[10]; [30],25 µg/mL
same,MIC (μg/mL) A. hydrophila,[11]; [31],12.5 µg/mL
